# Measured values: PMC11508649 (International Journal of Molecular Sciences, 2024)
# Structures can show the parent of a compound that is named as a salt. Where two headings read alike, the source gives them in different places. Marks after values point to notes of the source that are not given here.
# How the values were obtained:
# human 5-HT1A receptor [1] = biological target: T1, human 5-HT1A receptor (Homo sapiens, UniProt P08908); assay: 5-HT1A receptor radioligand binding ([3H]-8-OH-DPAT, CHO-K1 membranes); settings: displacement of [3H]-8-OH-DPAT, mean ± SEM of three experiments, NC = not converged
# T1 construct: purchased PerkinElmer; host or cells: CHO-K1
# T1 sequence (P08908 1-422): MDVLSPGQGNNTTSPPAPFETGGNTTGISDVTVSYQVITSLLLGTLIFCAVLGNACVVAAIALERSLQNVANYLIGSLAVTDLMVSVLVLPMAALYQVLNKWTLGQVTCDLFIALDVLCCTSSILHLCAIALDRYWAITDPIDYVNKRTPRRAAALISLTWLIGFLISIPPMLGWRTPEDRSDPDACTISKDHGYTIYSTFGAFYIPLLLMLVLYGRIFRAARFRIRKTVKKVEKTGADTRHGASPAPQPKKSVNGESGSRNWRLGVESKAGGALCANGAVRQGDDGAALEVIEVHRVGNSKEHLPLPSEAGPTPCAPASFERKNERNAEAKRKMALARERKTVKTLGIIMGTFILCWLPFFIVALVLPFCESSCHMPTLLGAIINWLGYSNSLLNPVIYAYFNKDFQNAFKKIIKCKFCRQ
# Method: (§1) Each compound was tested in 6 concentrations from 10–5 to 10–10 M (final concentration).
# (§2) All assays were carried out in duplicates.
# [2] = biological target: T2, human serotonin transporter (Homo sapiens, UniProt P31645); assay: Serotonin transporter radioligand binding ([3H]-imipramine, HEK-293 membranes)
# T2 construct: purchased PerkinElmer; host or cells: HEK-293
# Method: as §1, §2
# α1-adrenoceptor = assay: ADRA1 receptor binding assay ([3H]-prazosin, rat cortex); settings: read-out: Ki ± SEM α1
# [3] = biological target: human norepinephrine transporter (Homo sapiens, UniProt P23975); assay: NET binding assay ([3H]-nisoxetine, MDCK membranes); settings: at 1 µM
# Method: We performed radioligand binding assays using membranes from CHO-K1 cells stably transfected with human DAT and membranes from MDCK cells stably transfected with human NET. This was accomplished by assessing the displacement of [^3H]-WIN35,428 and [^3H]-nisoxetine from cloned human DAT and NET, respectively.
# (§3) Ten-micromolar stock solutions of tested compounds were prepared in DMSO. […] Each compound was tested in a screening assay at final concentrations of 10 µM and 1 µM. Results were expressed as percent inhibition of radioligand binding. Reference compounds were tested in 8 concentrations from 10^−5 to 10^−12 M (final concentration).
# Radioligand binding was performed using membranes from MDCK cells stably transfected with the human norepinephrine transporter (PerkinElmer, Waltham, MA, USA). All assays were carried out in duplicates. Measures of 50 µL of working solution of the tested compounds, 50 µL of [^3H]-nisoxetine (final concentration 4 nM) and 150 µL of diluted membranes (3 µg protein per well) prepared in assay buffer (50 mM Tris-HCl, pH 7.4, 120 mM NaCl; 5 mM KCl) were transferred to a polypropylene 96-well microplate using the 96-well pipetting station Rainin Liquidator (MettlerToledo, Beverly, MA, USA). […] The microplate was covered with sealing tape, mixed and incubated for 60 min at 4 °C. The reaction was terminated by rapid filtration through GF/C filter mate pre-soaked with 0.5% polyethyleneimine for 30 min. Ten rapid washes with 200 µL of 50 mM Tris buffer (4 °C, pH 7.4) were performed using the automated harvester system Harvester-96 MACH III FM (Tomtec, Hamden, CT, USA). […] Radioactivity was counted using a MicroBeta2 scintillation counter (PerkinElmer, Turku, Finland). Data were fitted to a one-site curve-fitting equation with Prism 5 (GraphPad Software), and Ki values were estimated using the Cheng–Prusoff equation.
# [4] = biological target: human dopamine transporter (Homo sapiens, UniProt Q01959); assay: DAT binding assay ([3H]-WIN 35,428, CHO-K1 membranes); settings: for Selectivity Ratio hDAT/hSERT: ratio of Ki values
# Method: as §3
# Radioligand binding was performed using membranes from CHO-K1 cells stably transfected with the human dopamine transporter (PerkinElmer, Waltham, MA, USA). All assays were carried out in duplicates. […] The microplate was covered with sealing tape, mixed and incubated for 120 min at 4 °C. The reaction was terminated by rapid filtration through GF/C filter mate pre-soaked with 0.5% polyethyleneimine for 30 min. Ten rapid washes with 200 µL of 50 mM Tris buffer (4 °C, pH 7.4) were performed using the automated harvester system Harvester-96 MACH III FM (Tomtec, Hamden, CT, USA). […] Radioactivity was counted using a MicroBeta2 scintillation counter (PerkinElmer, Turku, Finland). Data were fitted to a one-site curve-fitting equation with Prism 5 (GraphPad Software), and Ki values were estimated using the Cheng–Prusoff equation.
# human 5-HT1A receptor [5] = biological target: T1, human 5-HT1A receptor; settings: previously described 1H-indole analogues; read-out: Ki ± SEM 5-HT1A; cited from earlier work
# [6] = biological target: T2, human serotonin transporter; settings: previously described 1H-indole analogues; read-out: Ki ± SEM SERT; cited from earlier work
# [7] = displacement of [3H]-imipramine, HEK-293 membranes, mean ± SEM of three experiments, read-out: Ki ± SEM SERT
# T2 sequence (P31645 whole entry): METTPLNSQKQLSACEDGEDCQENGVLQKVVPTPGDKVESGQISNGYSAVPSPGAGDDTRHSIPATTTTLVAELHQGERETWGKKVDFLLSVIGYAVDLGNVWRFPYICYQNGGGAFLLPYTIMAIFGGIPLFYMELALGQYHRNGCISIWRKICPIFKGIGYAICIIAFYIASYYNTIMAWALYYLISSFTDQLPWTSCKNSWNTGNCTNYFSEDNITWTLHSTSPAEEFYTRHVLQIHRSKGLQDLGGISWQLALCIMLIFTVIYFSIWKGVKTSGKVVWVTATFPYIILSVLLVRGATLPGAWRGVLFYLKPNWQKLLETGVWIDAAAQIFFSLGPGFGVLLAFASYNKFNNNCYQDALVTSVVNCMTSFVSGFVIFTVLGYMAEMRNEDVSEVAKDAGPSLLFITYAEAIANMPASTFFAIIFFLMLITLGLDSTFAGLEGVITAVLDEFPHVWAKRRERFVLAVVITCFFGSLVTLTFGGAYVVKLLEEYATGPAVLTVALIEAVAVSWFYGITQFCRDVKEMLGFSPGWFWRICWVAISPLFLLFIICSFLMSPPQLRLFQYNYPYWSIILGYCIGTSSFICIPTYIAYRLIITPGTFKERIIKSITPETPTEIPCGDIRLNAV
# human norepinephrine transporter, sequence (P23975 whole entry): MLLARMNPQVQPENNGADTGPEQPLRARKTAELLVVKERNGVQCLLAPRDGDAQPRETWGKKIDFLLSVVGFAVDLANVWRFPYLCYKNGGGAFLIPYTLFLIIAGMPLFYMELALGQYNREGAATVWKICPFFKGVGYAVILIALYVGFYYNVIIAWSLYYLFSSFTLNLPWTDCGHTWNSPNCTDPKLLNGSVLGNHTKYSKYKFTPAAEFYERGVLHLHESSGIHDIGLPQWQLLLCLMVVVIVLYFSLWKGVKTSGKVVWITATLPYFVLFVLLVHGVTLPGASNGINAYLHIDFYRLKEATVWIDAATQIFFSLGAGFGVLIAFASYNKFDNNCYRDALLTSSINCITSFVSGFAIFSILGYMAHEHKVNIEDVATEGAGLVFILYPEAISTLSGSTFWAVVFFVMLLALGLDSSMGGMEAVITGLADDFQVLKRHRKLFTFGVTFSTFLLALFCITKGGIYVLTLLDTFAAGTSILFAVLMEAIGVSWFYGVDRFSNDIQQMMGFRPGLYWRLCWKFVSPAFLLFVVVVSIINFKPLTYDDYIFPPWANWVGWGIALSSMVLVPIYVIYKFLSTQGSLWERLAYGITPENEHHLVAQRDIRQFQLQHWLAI
# human dopamine transporter, sequence (Q01959 whole entry): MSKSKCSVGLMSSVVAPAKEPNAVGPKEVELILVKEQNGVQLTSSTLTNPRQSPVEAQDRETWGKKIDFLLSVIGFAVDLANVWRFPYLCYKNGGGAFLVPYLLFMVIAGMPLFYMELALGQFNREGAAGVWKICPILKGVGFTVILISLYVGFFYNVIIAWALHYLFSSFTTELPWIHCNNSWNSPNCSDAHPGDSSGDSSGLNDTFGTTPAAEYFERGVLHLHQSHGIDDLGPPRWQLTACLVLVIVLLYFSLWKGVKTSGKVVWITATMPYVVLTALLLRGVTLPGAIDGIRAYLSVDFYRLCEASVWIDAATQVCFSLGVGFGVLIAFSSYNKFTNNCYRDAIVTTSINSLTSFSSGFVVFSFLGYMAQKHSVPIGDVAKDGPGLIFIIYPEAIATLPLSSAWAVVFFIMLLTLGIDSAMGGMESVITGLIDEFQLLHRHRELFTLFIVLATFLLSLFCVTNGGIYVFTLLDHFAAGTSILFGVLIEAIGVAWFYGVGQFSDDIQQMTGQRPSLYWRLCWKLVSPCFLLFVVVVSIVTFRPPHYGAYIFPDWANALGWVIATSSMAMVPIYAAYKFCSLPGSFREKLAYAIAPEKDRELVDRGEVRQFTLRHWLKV
Structure (SMILES),melting point [°C],Ki (human 5-HT1A receptor [5]) [nM],Ki [6] [nM],other results
"O=C1CC(c2c[nH]c3ccccc23)C(=O)N1CCCCN1CC=C(c2c[nH]c3ncccc23)CC1 (stereo not drawn) (as salt: hydrochloride) [Compound 4, 1-(4-(4-(1H-Pyrrolo[2,3-b]pyridin-3-yl)-3,6-dihydropyridin-1(2H)-yl)butyl)-3-(1H-indol-3-yl)pyrrolidine-2,5-dione]",172 to 177,–,–,–
"O=C1CC(c2c[nH]c3ccccc23)C(=O)N1CCCN1CC=C(c2c[nH]c3ncccc23)CC1 (stereo not drawn) (as salt: hydrochloride) [Compound 5, 1-(3-(4-(1H-Pyrrolo[2,3-b]pyridin-3-yl)-3,6-dihydropyridin-1(2H)-yl)propyl)-3-(1H-indol-3-yl)pyrrolidine-2,5-dione]",97 to 102,–,–,–
"O=C1CC(c2c[nH]c3ccccc23)C(=O)N1CCN1CC=C(c2c[nH]c3ncccc23)CC1 (stereo not drawn) (as salt: hydrochloride) [Compound 6, 1-(2-(4-(1H-Pyrrolo[2,3-b]pyridin-3-yl)-3,6-dihydropyridin-1(2H)-yl)ethyl)-3-(1H-indol-3-yl)pyrrolidine-2,5-dione]",233 to 235,–,–,–
"COc1ccc2[nH]cc(C3CC(=O)N(CCCCN4CC=C(c5c[nH]c6ncccc56)CC4)C3=O)c2c1 (stereo not drawn) (as salt: hydrochloride) [Compound 7, 1-(4-(4-(1H-Pyrrolo[2,3-b]pyridin-3-yl)-3,6-dihydropyridin-1(2H)-yl)butyl)-3-(5-methoxy-1H-indol-3-yl)pyrrolidine-2,5-dione]",140 to 144,–,–,–
"COc1ccc2[nH]cc(C3CC(=O)N(CCCN4CC=C(c5c[nH]c6ncccc56)CC4)C3=O)c2c1 (stereo not drawn) (as salt: hydrochloride) [Compound 8, 1-(3-(4-(1H-Pyrrolo[2,3-b]pyridin-3-yl)-3,6-dihydropyridin-1(2H)-yl)propyl)-3-(5-methoxy-1H-indol-3-yl)pyrrolidine-2,5-dione]",111 to 115,–,–,–
"COc1ccc2[nH]cc(C3CC(=O)N(CCN4CC=C(c5c[nH]c6ncccc56)CC4)C3=O)c2c1 (stereo not drawn) (as salt: hydrochloride) [Compound 9, 1-(2-(4-(1H-Pyrrolo[2,3-b]pyridin-3-yl)-3,6-dihydropyridin-1(2H)-yl)ethyl)-3-(5-methoxy-1H-indol-3-yl)pyrrolidine-2,5-dione]",129 to 132,–,–,–
"O=C1CC(c2c[nH]c3ccc(F)cc23)C(=O)N1CCCCN1CC=C(c2c[nH]c3ncccc23)CC1 (stereo not drawn) (as salt: hydrochloride) [Compound 10, 1-(4-(4-(1H-Pyrrolo[2,3-b]pyridin-3-yl)-3,6-dihydropyridin-1(2H)-yl)butyl)-3-(5-fluoro-1H-indol-3-yl)pyrrolidine-2,5-dione]",98 to 102,–,–,–
"O=C1CC(c2c[nH]c3ccc(F)cc23)C(=O)N1CCCN1CC=C(c2c[nH]c3ncccc23)CC1 (stereo not drawn) (as salt: hydrochloride) [Compound 11, 1-(3-(4-(1H-Pyrrolo[2,3-b]pyridin-3-yl)-3,6-dihydropyridin-1(2H)-yl)propyl)-3-(5-fluoro-1H-indol-3-yl)pyrrolidine-2,5-dione]",147 to 150,–,–,–
"O=C1CC(c2c[nH]c3ccc(F)cc23)C(=O)N1CCN1CC=C(c2c[nH]c3ncccc23)CC1 (stereo not drawn) (as salt: hydrochloride) [Compound 12, 1-(2-(4-(1H-Pyrrolo[2,3-b]pyridin-3-yl)-3,6-dihydropyridin-1(2H)-yl)ethyl)-3-(5-fluoro-1H-indol-3-yl)pyrrolidine-2,5-dione]",250 to 252,–,–,–
"O=C1CC(c2c[nH]c3ccccc23)C(=O)N1CCCN1CC=C(c2c[nH]c3ncccc23)CC1 (stereo not drawn) [Compound 5, 1-(3-(4-(1H-Pyrrolo[2,3-b]pyridin-3-yl)-3,6-dihydropyridin-1(2H)-yl)propyl)-3-(1H-indol-3-yl)pyrrolidine-2,5-dione]",–,–,–,Ki (human 5-HT1A receptor [1]): 2450 ± 24 nM; Ki [2]: 57.1 ± 3.2 nM
"O=C1CC(c2c[nH]c3ccccc23)C(=O)N1CCN1CC=C(c2c[nH]c3ncccc23)CC1 (stereo not drawn) [Compound 6, 1-(2-(4-(1H-Pyrrolo[2,3-b]pyridin-3-yl)-3,6-dihydropyridin-1(2H)-yl)ethyl)-3-(1H-indol-3-yl)pyrrolidine-2,5-dione]",–,–,–,"Ki [2, 7]: 245 ± 18 nM; Ki (α1-adrenoceptor): 367 ± 55.2 nM; hNET screening procedure, displacement % [3]: 37% ^a; Ki [4]: 916 ± 40.5 nM; Selectivity Ratio hDAT/hSERT [4]: 3.7"
"COc1ccc2[nH]cc(C3CC(=O)N(CCCCN4CC=C(c5c[nH]c6ncccc56)CC4)C3=O)c2c1 (stereo not drawn) [Compound 7, 1-(4-(4-(1H-Pyrrolo[2,3-b]pyridin-3-yl)-3,6-dihydropyridin-1(2H)-yl)butyl)-3-(5-methoxy-1H-indol-3-yl)pyrrolidine-2,5-dione]",–,–,–,"Ki (human 5-HT1A receptor [1]): 824 ± 23.2 nM; Ki [2, 7]: 58.4 ± 4 nM"
"COc1ccc2[nH]cc(C3CC(=O)N(CCN4CC=C(c5c[nH]c6ncccc56)CC4)C3=O)c2c1 (stereo not drawn) [Compound 9, 1-(2-(4-(1H-Pyrrolo[2,3-b]pyridin-3-yl)-3,6-dihydropyridin-1(2H)-yl)ethyl)-3-(5-methoxy-1H-indol-3-yl)pyrrolidine-2,5-dione]",–,–,–,"Ki [2, 7]: 92 ± 8 nM; Ki (α1-adrenoceptor): 319 ± 10.2 nM; hNET screening procedure, displacement % [3]: 41% ^a; Ki [4]: 335 ± 14.8 nM; Selectivity Ratio hDAT/hSERT [4]: 3.6"
"O=C1CC(c2c[nH]c3ccc(F)cc23)C(=O)N1CCCCN1CC=C(c2c[nH]c3ncccc23)CC1 (stereo not drawn) [Compound 10, 1-(4-(4-(1H-Pyrrolo[2,3-b]pyridin-3-yl)-3,6-dihydropyridin-1(2H)-yl)butyl)-3-(5-fluoro-1H-indol-3-yl)pyrrolidine-2,5-dione]",–,–,–,"Ki (human 5-HT1A receptor [1]): 128 ± 12 nM; Ki [2, 7]: 77.6 ± 2.5 nM"
"O=C1CC(c2c[nH]c3ccc(F)cc23)C(=O)N1CCN1CC=C(c2c[nH]c3ncccc23)CC1 (stereo not drawn) [Compound 12, 1-(2-(4-(1H-Pyrrolo[2,3-b]pyridin-3-yl)-3,6-dihydropyridin-1(2H)-yl)ethyl)-3-(5-fluoro-1H-indol-3-yl)pyrrolidine-2,5-dione]",–,–,–,"Ki [2, 7]: 252 ± 24 nM; Ki (α1-adrenoceptor): 456 ± 6 nM; hNET screening procedure, displacement % [3]: 42% ^a; Ki [4]: 229 ± 21.4 nM; Selectivity Ratio hDAT/hSERT [4]: 0.9"
O=C1CC(c2c[nH]c3ccccc23)C(=O)N1CCCCN1CC=C(c2c[nH]c3ccccc23)CC1 (stereo not drawn) [Compound 13],–,12.5 ± 1.7,11.3 ± 0.6,–
O=C1CC(c2c[nH]c3ccccc23)C(=O)N1CCCN1CC=C(c2c[nH]c3ccccc23)CC1 (stereo not drawn) [Compound 14],–,161 ± 17.5,4 ± 0.1,–
O=C1CC(c2c[nH]c3ccccc23)C(=O)N1CCN1CC=C(c2c[nH]c3ccccc23)CC1 (stereo not drawn) [Compound 15],–,250 ± 6.8,33.8 ± 3.2,–
COc1ccc2[nH]cc(C3CC(=O)N(CCCCN4CC=C(c5c[nH]c6ccccc56)CC4)C3=O)c2c1 (stereo not drawn) [Compound 16],–,30.4 ± 1.8,2.6 ± 0.3,–
COc1ccc2[nH]cc(C3CC(=O)N(CCCN4CC=C(c5c[nH]c6ccccc56)CC4)C3=O)c2c1 (stereo not drawn) [Compound 17],–,221 ± 11.5,782 ± 54,–
COc1ccc2[nH]cc(C3CC(=O)N(CCN4CC=C(c5c[nH]c6ccccc56)CC4)C3=O)c2c1 (stereo not drawn) [Compound 18],–,348 ± 12.1,14.7 ± 1.5,–
O=C1CC(c2c[nH]c3ccc(F)cc23)C(=O)N1CCCCN1CC=C(c2c[nH]c3ccccc23)CC1 (stereo not drawn) [Compound 19],–,48.2 ± 2.9,33.3 ± 2.9,–
"Cc1ccc(N(CC2=NCCN2)c2cccc(O)c2)cc1 [phentolamine, reference compound]",–,–,–,Ki (α1-adrenoceptor): 11 ± 0.7 nM
